Reference: patent US20250281649A1, “PROBE DIRECTED TO ENZYME ALDH1A3 AND USE THEREOF IN THE DIAGNOSIS OF GLIOBLASTOMA” (Universita' Degli Studi Del Piemonte Orientale "A. Avogadro", priority 2021, published 2025)

Experiments:
HEK293T (ALDH1A2+) = assay: Confocal fluorescence of probes in cell lines; type: cell-based; conditions: 10 μM to 100 nM
Procedure: (§1) All 3 enzymes belonging to the subfamily 1A of aldehyde dehydrogenases were expressed recombinantly in bacterial cells and purified to homogeneity. The pure enzymes were then used to study the interaction with the molecules according to the invention, using various in vitro biochemical assays. In particular, the affinity for the isoenzymes of the selected molecules was measured through the use of a TECAN SPARK and a TECAN SUNRISE. Fluorescence assays were performed in the presence of different protein concentrations and the activity assays were conducted by measuring NAD^+ consumption. According to their specific activity, all molecules were characterized by values of KD, KM, Ki and IC50, showing a net selectivity in specifically binding the ALDH1A3 enzyme. The probes having curcumin and recognizing the ALDH1A3 enzyme were tested in a cellular context, using four different cell lines classified by the presence or absence of the isoform studied: human glioblastoma line (U87MG, ALDH1A3 positive), embryonic kidney cell line (HEK293T, ALDH1A2 positive), human astrocyte line (hAstro, ALDH1A1 positive) and a breast cancer line (4T1, ALDHIA negative). […] The binding ability of the probes to these cell lines was also verified and confirmed by flow cytometry.
(§2) Human U87MG glioblastoma were used as ALDH1A3+ cell lines, HEK293T as ALDH1A2+ cell line, human foetal astrocytes (hASTRO) as ALDH1A1+ cell line and 4T1 mammary carcinoma as triple negative ALDHIA subfamily (checked with Western Blot analysis and RT-PCR). All these cell lines were incubated with Probe 14 and 13 at different concentrations (from 10 μM to 100 nM). At all these concentrations we observed a selectivity of probe 14 and 13 on U87MG cells after 2 h, that appeared to be cytoplasmic, no signal has been verified in HEK293T, hASTRO and 4T1 cell lines. Moreover, we incubated the two probes with cells and analyzed with FACS and we observed a significant positivity in U87MG cells, too.

[1] = test system: 4T1 mammary carcinoma (triple negative ALDH1A subfamily); assay: Confocal fluorescence of probes in cell lines; type: cell-based; conditions: 4T1, 10 μM to 100 nM
Procedure: as §1, §2

[2] = test system: human foetal astrocytes (hASTRO, ALDH1A1+); assay: Confocal fluorescence of probes in cell lines; type: cell-based; conditions: 10 μM to 100 nM
Procedure: as §1, §2

GL261 glioblastoma cells = assay: In vivo labelling of GL261 glioma in mouse brain after i.p. injection; conditions: GL261 tumor-bearing mouse brain, 6 hours after injection, 6 days after implantation
From the text: We used in vitro and in vivo cells from a mouse high grade glioma cell line, GL261, Briefly, twenty-four 2- to 3-month-old female C57BIC mice were stereotactically implanted under deep general anesthesia (isoflurane supplemented with nitrous oxide) with 1×10^5 GL261 glioblastoma cells. The cells were stereotactically inoculated through a burr hole by a Hamilton syringe into the left striatum (coordinates: 1 mm anteroposterior and 1 mm lateral from bregma, at a depth of 3 mm). All experimental procedures were conducted in accordance with the European Communities Council Directive of 24 Nov. 1986 (86/609 EEC), Recommendation 18/06/2007, Dir. 2010/63/UE, and the Italian law for care and use of experimental animals (DL116/92) and were approved by the Italian Ministry of Health (prot. E669C.15) and the Bioethical Committee of the University of Turin. All animals were housed under a 12-hour light-dark cycle in an environmentally controlled room. All experiments were designed to minimize the numbers of animals used and their discomfort. In each experiment, animals with tumors were allocated to two groups and i.p. injected with probe 14 or probe 13. All drugs were administered intraperitoneally, and treatments were started days 6 after tumor implantation. […] Quantitative and phenotypic evaluations were made on images acquired with a Leica TCS SP5 confocal microscope.

ALDH1A3 = target: T1, ALDH1A3 (Homo sapiens, UniProt P47895); assay: Fluorescence of probes in buffer and in complex with the isoenzymes (Tecan SPARK); type: binding; conditions: in complex with the three isoenzymes, in particular ALDH1A3
T1 construct: His-tag; made in house; host or cells: bacterial cells
T1 sequence (P47895 1-512): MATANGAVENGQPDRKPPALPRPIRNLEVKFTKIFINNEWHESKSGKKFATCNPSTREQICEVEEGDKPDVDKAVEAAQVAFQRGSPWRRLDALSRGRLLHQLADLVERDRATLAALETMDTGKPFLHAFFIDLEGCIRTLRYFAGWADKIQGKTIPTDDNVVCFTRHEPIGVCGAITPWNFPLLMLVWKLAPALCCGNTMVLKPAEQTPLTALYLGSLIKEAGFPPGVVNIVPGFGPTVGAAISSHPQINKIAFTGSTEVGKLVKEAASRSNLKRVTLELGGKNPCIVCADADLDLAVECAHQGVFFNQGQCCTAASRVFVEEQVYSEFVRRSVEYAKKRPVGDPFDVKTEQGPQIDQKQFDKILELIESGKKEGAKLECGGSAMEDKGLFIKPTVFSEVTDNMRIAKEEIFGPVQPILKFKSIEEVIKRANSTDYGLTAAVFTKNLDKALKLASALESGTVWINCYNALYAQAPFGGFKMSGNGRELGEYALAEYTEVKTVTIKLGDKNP
Procedure: All five compounds were dissolved in DMSO (100%) to obtain two different initial stocks, one at 10 mM and a second one at 1 mM. […] The assay can be executed at a maximum DMSO percentage of 15%. The maximum probe concentration tested was 500 uM—15% DMSO. All the compounds were tested using a Tecan—SPARK, to analyze their absorbance, excitation and emission wavelength. Based on the literature, the absorbance of the curcumin by itself is comprised between 420 and 425 nm. At first, we measured the absorbance, and from those values, we performed a 3D analysis to highlights the correct Ex and Em wavelengths. To avoid any possible background in the fluorescence signal we performed a screening of every possible buffer used in our assays.

| Compound | fluorescence signal in cells (HEK293T (ALDH1A2+)) | fluorescence signal in cells [1] | fluorescence signal in cells [2] | probe fluorescence / penetration in tumor cells in vivo (GL261 glioblastoma cells) | increase of fluorescence in complex with the isoenzymes (ALDH1A3) |
| --- | --- | --- | --- | --- | --- |
| COc1cc(/C=C/C(=O)/C=C(O)/C=C/c2ccc(OCc3cn(CCOc4ccc(C=O)cc4)nn3)c(OC)c2)ccc1O [Compound 13] | no signal | no signal | no signal | fluoresce in green | significant positive increment |
| CCOC(=O)Cn1cc(COc2ccc(/C=C/C(O)=C/C(=O)/C=C/c3ccc(O)c(OC)c3)cc2OC)nn1 [Compound 14] | no signal | no signal | no signal | does not penetrate to any appreciable level | significant positive increment |
